Values of other authors, collected in patent US8790626B2, “Method for treating hair growth disorders, such as female pattern alopecia, and compositions useful therefore” (The University of Kentucky, priority 2005, dated 2014).

Tests used:
[1] = Jacobson, et al., 2005
[2] = U.S. Pat. No. 6,924,299

SMILES | Epidermal differentiation and skin barrier integrity [1] | Blood flow and oxygen delivery to tissue [2]
CCCCCCCCCCCCCCOC(=O)c1cccnc1 [Myristyl nicotinate, myristyl nicotinate] | promote epidermal differentiation leading to strong enhancement of skin barrier integrity | –
CCCCCCCCOC(=O)c1cccnc1 [octyl nicotinate] | – | stimulates blood flow and oxygen delivery to tissue
